Here are results for 21 compounds from patent US20080132536A1, “PYRAZOLO [3,4-B] PYRIDINE COMPOUNDS, AND THEIR USE AS PDE4 INHIBITORS” (Glaxo Group Limited, priority 2003, published 2008).

The target in one experiment is T1, PDE4B (human recombinant) (Homo sapiens, UniProt Q07343).
T1 construct: made in house
T1 sequence (Q07343 1-564 isoform Q07343-2): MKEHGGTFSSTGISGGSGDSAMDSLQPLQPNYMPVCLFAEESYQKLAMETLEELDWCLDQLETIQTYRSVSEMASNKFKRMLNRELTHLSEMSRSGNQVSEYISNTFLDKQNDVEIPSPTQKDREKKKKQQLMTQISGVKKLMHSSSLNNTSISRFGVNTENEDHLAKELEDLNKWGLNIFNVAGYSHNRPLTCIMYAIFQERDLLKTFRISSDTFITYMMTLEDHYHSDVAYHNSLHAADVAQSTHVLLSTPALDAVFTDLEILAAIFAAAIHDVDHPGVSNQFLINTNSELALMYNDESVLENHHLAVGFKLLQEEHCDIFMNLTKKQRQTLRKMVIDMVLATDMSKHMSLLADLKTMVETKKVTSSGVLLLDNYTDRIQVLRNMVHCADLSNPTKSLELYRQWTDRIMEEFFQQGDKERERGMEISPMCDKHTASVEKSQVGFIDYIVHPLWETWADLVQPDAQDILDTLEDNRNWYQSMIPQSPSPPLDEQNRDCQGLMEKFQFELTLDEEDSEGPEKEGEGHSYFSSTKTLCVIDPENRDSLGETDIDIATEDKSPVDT
The experiment can be described thus: PDE4B inhibition, radioactive SPA and/or IMAP fluorescence polarisation (FP) assay. The experiment is classed as biochemical. The settings on record: comparators: Examples 6, 7, 29, 26, 64, 126, 124, 170, 177. From the text: Human recombinant PDE4B, in particular the 2B splice variant thereof (HSPDE4B2B), is disclosed in WO 94/20079 and also M. M. McLaughlin et al., “A low Km, rolipram-sensitive, cAMP-specific phosphodiesterase from human brain: cloning and expression of cDNA, biochemical characterisation of recombinant protein, and tissue distribution of mRNA”, J. Biol. Chem., 1993, 268, 6470-6476. For example, in Example 1 of WO 94/20079, human recombinant PDE4B is described as being expressed in the PDE-deficient yeast Saccharomyces cerevisiae strain GL62, e.g. after induction by addition of 150 uM CuSO4, and 100,000×g supernatant fractions of yeast cell lysates are described for use in the harvesting of PDE4B enzyme.
The ability of compounds to inhibit catalytic activity at PDE4B or 4D (human recombinant), PDE3 (from bovine aorta), PDE5 (human recombinant) or PDE6 (from bovine retina) can optionally be determined by Scintillation Proximity Assay (SPA) in 96-well format.
Test compounds (as a solution in DMSO, preferably about 2 microlitre (ul) volume of DMSO solution) are preincubated at ambient temperature (room temperature, e.g. 19-23° C.) in Wallac Isoplates (code 1450-514) with PDE enzyme in 50 mM Tris-HCl buffer pH 7.5, 8.3 mM MgCl2, 1.7 mM EGTA, 0.05% (w/v) bovine serum albumin for 10-30 minutes (usually 30 minutes). The enzyme concentration is adjusted so that no more than 20% hydrolysis of the substrate defined below occurs in control wells without compound, during the incubation. For the PDE3, PDE4B and PDE4D assays, [5′,8-3H]Adenosine 3′,5′-cyclic phosphate (Amersham Pharmacia Biotech, code TRK.559; or Amersham Biosciences UK Ltd, Pollards Wood, Chalfont St Giles, Buckinghamshire HP8 4SP, UK) is added to give 0.05 uCi per well and about 10 nM final concentration. For the PDE5 and PDE6 assays, [8-^3H]Guanosine 3′,5′-cyclic phosphate (Amersham Pharmacia Biotech, code TRK.392) is added to give 0.05 uCi per well and about 36 nM final concentration. Plates containing assay mixture, preferably approx. 100 ul volume of assay mixture, are mixed on an orbital shaker for 5 minutes and incubated at ambient temperature for 1 hour. Phosphodiesterase SPA beads (Amersham Pharmacia Biotech, code RPNQ 0150) are added (about 1 mg per well) to terminate the assay. Plates are sealed and shaken and allowed to stand at ambient temperature for 35 minutes to 1 hour (preferably 35 minutes) to allow the beads to settle. Bound radioactive product is measured using a WALLAC TRILUX 1450 Microbeta scintillation counter. For inhibition curves, 10 concentrations (1.5 nM-30 uM) of each compound are assayed. Curves are analysed using ActivityBase and XLfit (ID Business Solutions Limited, 2 Ocean Court, Surrey Research Park, Guildford, Surrey GU2 7QB, United Kingdom) Results are expressed as pIC50 values.
The ability of compounds to inhibit catalytic activity at PDE4B (human recombinant) or PDE4D (human recombinant) can optionally be determined by IMAP Fluorescence Polarisation (FP) assay (IMAP Explorer kit, available from Molecular Devices Corporation, Sunnydale, Calif., USA; Molecular Devices code: R8062) in 384-well format.
The IMAP FP assay is able to measure PDE activity in an homogenous, non-radioactive assay format. The FP assay uses the ability of immobilised trivalent metal cations, coated onto nanoparticles (tiny beads), to bind the phosphate group of Fl-AMP that is produced on the hydrolysis of fluorescein-labelled (Fl) cyclic adenosine mono-phosphate (Fl-cAMP) to the non-cyclic Fl-AMP form. […] Binding of Fl-AMP product to the beads (coated with the immobilised trivalent cations) slows the rotation of the bound Fl-AMP and leads to an increase in the fluorescence polarisation ratio of parallel to perpendicular light. Inhibition of the PDE reduces/inhibits this signal increase. […]
Take `CCn1ncc2c(NC3CCCCC3)c(C(=O)N[C@H](CO)c3ccccc3)cnc21` [Example 127, 4-(cyclohexylamino)-1-ethyl-N-[(1S)-2-hydroxy-1-phenylethyl]-1H-pyrazolo[3,4-b]pyridine-5-carboxamide]: the “PDE4B inhibitory activity compared with the comparable Example of opposite stereochemistry at the CR4R5 (benzylic) carbon atom” value is reported as “greater PDE4B inhibitory activity”. Still for that read-out and setting: the result for `CCn1ncc2c(NC3CCC(=O)CC3)c(C(=O)N[C@H](C)c3ccc([N+](=O)[O-])cc3)cnc21` [Example 178, 1-ethyl-N-[(1R)-1-(4-nitrophenyl)ethyl]-4-[(4-oxocyclohexyl)amino]-1H-pyrazolo[3,4-b]pyridine-5-carboxamide] reads “greater PDE4B inhibitory activity”; that for `CCn1ncc2c(NC3CCCCC3)c(C(=O)N[C@H](COC)c3ccccc3)cnc21` [Example 129, 4-(cyclohexylamino)-1-ethyl-N-[(1S)-2-(methyloxy)-1-phenylethyl]-1H-pyrazolo[3,4-b]pyridine-5-carboxamide], “greater PDE4B inhibitory activity”. On the same count and under the same terms, then `CCn1ncc2c(NC3CCOCC3)c(C(=O)N[C@H](CO)c3ccccc3)cnc21` [Example 28, 1-ethyl-N-[(1S)-2-hydroxy-1-phenylethyl]-4-(tetrahydro-2H-pyran-4-ylamino)-1H-pyrazolo[3,4-b]pyridine-5-carboxamide], with “greater PDE4B inhibitory activity”; and `CC[C@@H](NC(=O)c1cnc2c(cnn2CC)c1NC1CCN(C(C)=O)CC1)c1ccccc1` [Example 174, 4-[(1-acetyl-4-piperidinyl)amino]-1-ethyl-N-[(1R)-1-phenylpropyl]-1H-pyrazolo[3,4-b]pyridine-5-carboxamide], with “greater PDE4B inhibitory activity”; and `CCn1ncc2c(NC3CCOCC3)c(C(=O)N[C@H](C)c3ccccc3)cnc21` [Example 8, 1-ethyl-N-[(1R)-1-phenylethyl]-4-(tetrahydro-2H-pyran-4-ylamino)-1H-pyrazolo[3,4-b]pyridine-5-carboxamide], with “greater PDE4B inhibitory activity”.

The same experiment, now with this note: one reading or average of several (ca. 2-6) readings; SPA and/or FP assay; range given for a group of Examples; read-out: PDE4B pIC50 (±about 0.5) (converted).
`CCn1ncc2c(N[C@H]3CC[C@H](C(N)=O)CC3)c(C(=O)N[C@H](C)c3ccccc3)cnc21` [Example 358, 4-{[trans-4-(aminocarbonyl)cyclohexyl]amino}-1-ethyl-N-[(1R)-1-phenylethyl]-1H-pyrazolo[3,4-b]pyridine-5-carboxamide]: the IC50 was 39.8 to 158 nM. In the case of `CCC(NC(=O)c1cnc2c(cnn2CC)c1NC1CCC(=NO)CC1)c1ccc(C)c(C)c1` (centres unmarked) [Example 261, N-[1-(3,4-dimethylphenyl)propyl]-1-ethyl-4-{[4-(hydroxyimino)cyclohexyl]amino}-1H-pyrazolo[3,4-b]pyridine-5-carboxamide], the IC50 is 0.1 to 2 nM. Same read-out and setting: then `CC[C@H](NC(=O)c1cnc2c(cnn2CC)c1NC1CCOCC1)c1ccccc1` [Example 6, 1-ethyl-N-[(1S)-1-phenylpropyl]-4-(tetrahydro-2H-pyran-4-ylamino)-1H-pyrazolo[3,4-b]pyridine-5-carboxamide], with 31.6 to 70.8 nM; and `CCC(NC(=O)c1cnc2c(cnn2CC)c1NC1CCC(=NO)CC1)c1ccc(C)cc1` (centres unmarked) [Example 252, 1-ethyl-4-{[4-(hydroxyimino)cyclohexyl]amino}-N-[1-(4-methylphenyl)propyl]-1H-pyrazolo[3,4-b]pyridine-5-carboxamide], with 0.1 to 2 nM.

For `CCC(NC(=O)c1cnc2c(cnn2CC)c1NC1CCC(=O)CC1)c1ccc(C)cc1C` (centres unmarked) [Example 210, N-[1-(2,4-dimethylphenyl)propyl]-1-ethyl-4-[(4-oxocyclohexyl)amino]-1H-pyrazolo[3,4-b]pyridine-5-carboxamide], the IC50 was 0.1 to 2 nM. Still for that read-out and setting: the result for `CCn1ncc2c(NC3CCOCC3)c(C(=O)NC(C)c3ccc(Br)cc3)cnc21` (centres unmarked) [Example 50, N-[1-(4-bromophenyl)ethyl]-1-ethyl-4-(tetrahydro-2H-pyran-4-ylamino)-1H-pyrazolo[3,4-b]pyridine-5-carboxamide] reads 0.794 to 5.01 nM. The same measure, in the same setting: then `CCn1ncc2c(NC3CCOCC3)c(C(=O)N[C@@H](C(N)=O)c3ccccc3)cnc21` [Example 25, N-[(1R)-2-amino-2-oxo-1-phenylethyl]-1-ethyl-4-(tetrahydro-2H-pyran-4-ylamino)-1H-pyrazolo[3,4-b]pyridine-5-carboxamide], with 31.6 to 70.8 nM; and `CCn1ncc2c(NC3CCOCC3)c(C(=O)N[C@H](CO)c3ccccc3)cnc21` [Example 28, 1-ethyl-N-[(1S)-2-hydroxy-1-phenylethyl]-4-(tetrahydro-2H-pyran-4-ylamino)-1H-pyrazolo[3,4-b]pyridine-5-carboxamide], with 0.794 to 5.01 nM. Regarding `CCn1ncc2c(NC3CCCC(O)C3)c(C(=O)NC(C)c3ccc(C)cc3)cnc21` (mixture of isomers) [Example 283, 1-ethyl-4-{[(1S,3R)-and/or (1R,3S)-3-hydroxycyclohexyl]amino}-N-[(1R)-1-(4-methylphenyl)ethyl]-1H-pyrazolo[3,4-b]pyridine-5-carboxamide], the IC50 was 0.1 to 2 nM. Still for that read-out and setting: then `CCn1ncc2c(NC3CCCC(O)C3)c(C(=O)N[C@H](C)c3ccc(C)cc3)cnc21` (single isomer, unassigned; diastereoisomer 2) [Example 306], with 0.1 to 2 nM; and `CCn1ncc2c(NC3CCOCC3)c(C(=O)N[C@@H](C)c3ccc(OC)cc3)cnc21` [Example 64, 1-ethyl-N-{(1S)-1-[4-(methyloxy)phenyl]ethyl}-4-(tetrahydro-2H-pyran-4-ylamino)-1H-pyrazolo[3,4-b]pyridine-5-carboxamide], with 31.6 to 70.8 nM; and `CCC(NC(=O)c1cnc2c(cnn2CC)c1NC1CCC(C(N)=O)CC1)c1ccc(Cl)cc1` (mixture of isomers) [Example 346, 4-{[4-(aminocarbonyl)cyclohexyl]amino}-N-[1-(4-chlorophenyl)propyl]-1-ethyl-1H-pyrazolo[3,4-b]pyridine-5-carboxamide], with 0.501 to 3.16 nM. The same measure, in the same setting: the result for `CCn1ncc2c(NC3CCOCC3)c(C(=O)N[C@H](C)c3ccccc3)cnc21` [Example 8, 1-ethyl-N-[(1R)-1-phenylethyl]-4-(tetrahydro-2H-pyran-4-ylamino)-1H-pyrazolo[3,4-b]pyridine-5-carboxamide] reads 0.794 to 5.01 nM.

For the compound `CCC(NC(=O)c1cnc2c(cnn2CC)c1NC1CCOCC1)c1ccc(C)cc1C` (single isomer, unassigned; enantiomer 2) [Example 304, N-[1-(2,4-dimethylphenyl)propyl]-1-ethyl-4-(tetrahydro-2H-pyran-4-ylamino)-1H-pyrazolo[3,4-b]pyridine-5-carboxamide (Enantiomer 2)], the IC50 was 0.1 to 2 nM. Same read-out and setting: then `CCC(NC(=O)c1cnc2c(cnn2CC)c1NC1CCOCC1)c1ccc(C)cc1C` (centres unmarked) [Example 98, N-[1-(2,4-dimethylphenyl)propyl]-1-ethyl-4-(tetrahydro-2H-pyran-4-ylamino)-1H-pyrazolo[3,4-b]pyridine-5-carboxamide], with 0.1 to 2 nM; and `CCC(NC(=O)c1cnc2c(cnn2CC)c1NC1CCCC(O)C1)c1ccc(Cl)cc1` [Example 282, N-[1-(4-chlorophenyl)propyl]-1-ethyl-4-{[(1S,3R)-and/or (1R,3S)-3-hydroxycyclohexyl]amino}-1H-pyrazolo[3,4-b]pyridine-5-carboxamide], with 0.1 to 2 nM. Take `CC[C@@H](NC(=O)c1cnc2c(cnn2CC)c1NC1CCC(C(N)=O)CC1)c1ccccc1` (mixture of isomers) [Example 347, 4-{[4-(aminocarbonyl)cyclohexyl]amino}-1-ethyl-N-[(1R)-1-phenylpropyl]-1H-pyrazolo[3,4-b]pyridine-5-carboxamide]: the IC50 was 0.501 to 3.16 nM.
